Values after ≈ are worked out from the molar mass of the structure shown.
Experiments:
Assay type in all cases: functional
Saccharomyces cerevisiae = assay: Antifungal activity against Saccharomyces cerevisiae KCTC 7913 after 48 hrs by broth microdilution method; settings: KCTC 7913, 48 h
Bacillus subtilis = assay: Antibacterial activity against Bacillus subtilis KCTC 1021 after 24 hrs by broth microdilution method; settings: KCTC 1021, 24 h
Escherichia coli = assay: Antibacterial activity against Escherichia coli KCTC 1923 after 24 hrs by broth microdilution method; settings: KCTC 1923, 24 h

| Structure (SMILES) | MIC (Saccharomyces cerevisiae) [µM] | MIC (Bacillus subtilis) [µM] | MIC (Escherichia coli) [µM] |
| --- | --- | --- | --- |
| C[C@@H]1CCC/C=C/[C@@H]2O[C@H](C[C@@H](O)C/C=C\C=C\[C@@H](O)C/C=C/C=C\C(=O)O1)[C@H]2O | 0.16 (≈ 0.067 µg/mL) | 0.16 (≈ 0.067 µg/mL) | 0.16 (≈ 0.067 µg/mL) |
| C[C@@H]1CCC/C=C/[C@@H]2O[C@@H](C/C=C\C=C\[C@@H](O)C/C=C/C=C\C(=O)O1)C[C@@H](O)[C@H]2O | 0.16 (≈ 0.067 µg/mL) | 0.16 (≈ 0.067 µg/mL) | 0.16 (≈ 0.067 µg/mL) |
| C[C@@H]1CCC[C@@H]2O[C@H]2/C=C/[C@H](O)C[C@@H](O)C/C=C\C=C\[C@@H](O)C/C=C/C=C\C(=O)O1 | 0.02 (≈ 0.00837 µg/mL) | 0.16 (≈ 0.067 µg/mL) | 0.16 (≈ 0.067 µg/mL) |
